Holding throughout (type): biochemical
Test [1] addresses PKR(wt) (Homo sapiens, UniProt P30613). The test is described as follows: Luminescence Assay Protocol (Kinase Glo Plus), PKR(Wt/without FBP). The conditions noted are these: without FBP; for activation at 1.54 µM / I - AC50 LUM KGP woFBP % Fold @ 1.54 μM mean: compound 1.54 μM; for activation at 1.54 µM: read-out: I - AC50 LUM KGP woFBP % Fold @ 1.54 μM mean; for Emax / H - AC50 LUM KGP woFBP MAX % FOLD mean: highest % fold increase at any concentration; for Emax: read-out: H - AC50 LUM KGP woFBP MAX % FOLD mean; for AC50: gmean, read-out: G - AC50 LUM KGP woFBP AC50 μM gmean. On the procedure:
(§1) Example 47: PKR(Wt/without FBP), PKR(G332S/with FBP), PKR(R510Q/without FBP)
(§2) The phosphorylation of Adenosine-5′-diphosphate (ADP) by various mutants of PKR was determined by the Kinase Glo Plus Assay (Promega) in the presence or absence of FBP [D-Fructose-1,6-diphosphate; BOC Sciences, CAS: 81028-91-3] as follows. Unless otherwise indicated, all reagents were purchased from Sigma-Aldrich. All reagents were prepared in buffer containing 50 mM Tris-HCl, 100 mM KCl, 5 mM MgCl2, and 0.01% Triton X100, 0.03% BSA, and 1 mM DTT. Enzyme and PEP [Phospho(enol) pyruvic acid] were added at 2× to all wells of an assay-ready plate containing serial dilutions of test compounds or DMSO vehicle. Final enzyme concentrations for PKR(wt), PKR(R510Q), and PKR(G332S) were 0.8 nM, 0.8 nM, and 10 nM respectively. Final PEP concentration was 100 μM. The Enzyme/PEP mixture was incubated with compounds for 30 minutes at RT before the assay was initiated with the addition of 2×ADP [Adenosine-5′-diphosphate] and KinaseGloPlus. Final concentration of ADP was 100 μM. […] For assays containing FBP, that reagent is added at 30 μM upon reaction initiation. Reactions were allowed to progress for 45 minutes at RT until luminescence was recorded by the BMG PHERAstar FS Multilabel Reader. All compounds were tested in triplicate at concentrations ranging from 42.5 μM to 2.2 nM in 0.83% DMSO.
(§3) Luminescence values were converted to % Fold increase by normalizing to the average of the DMSO control and multiplying by 100. Max, min, slope and AC50 were determined by the standard four parameter fit algorithm of ActivityBase XE Runner. Compounds were evaluated with three parameters—AC50, MAX % Fold, and % Fold@1.54 μM (FIG. 1). The AC50 value for a compound is the concentration […] corresponding to the midway between the maximum and minimum values of the four parameter logistic curve fit (i.e., at which the % fold increase along the four parameter logistic curve fit is halfway between MAX % Fold and MIN % Fold (% Fold Midpoint)), MAX % Fold is the highest fold increase observed at any concentration of compound, and % Fold@1.54 μM is the fold increase at a compound concentration of 1.54 μM. The parameter % Fold@1.54 μM was selected to capture elements of both the AC50 and MAX % Fold and to provide a ranking based on both potency and effect. The compound concentration of 1.54 μM was chosen as one that can optimally differentiate the set of compounds based on the range of activities observed.
(§4) As set forth in Tables 6 and 7 below, AC50 values (columns A, D, G) are defined as follows: ≤0.1 μM (+++); >0.1 μM and ≤1.0 μM (++); >1.0 μM and ≤40 μM (+); >40 μM (0). Max % FOLD values (columns B, E, H) are defined as follows: ≤75% (+); >75% and ≤250% (++); >250% and ≤500% (+++). % Fold@1.54 μM values (columns C, F, I) are defined as follows: ≤75% (+); >75% and ≤250% (++); >250% and ≤500% (+++).
(In general: Kinase-Glo reads ATP consumption through a luciferase reaction.)

In test [2] the target is PKR(G332S) (Homo sapiens, UniProt P30613, G332S). The test is described as follows: Luminescence Assay Protocol (Kinase Glo Plus), PKR(G332S/with FBP). The following applies: PKRG332S, with FBP; for activation at 1.54 µM / C - AC50 LUM KGP FBP % Fold @ 1.54 μM mean: compound 1.54 μM; for activation at 1.54 µM: read-out: C - AC50 LUM KGP FBP % Fold @ 1.54 μM mean; for Emax / B - AC50 LUM KGP FBP MAX % FOLD mean: highest % fold increase at any concentration; for Emax: read-out: B - AC50 LUM KGP FBP MAX % FOLD mean; for AC50: gmean, read-out: A - AC50 LUM KGP FBP AC50 μM gmean. On the procedure: as §1, §2, §3, §4

The target of test [3] is PKR(R510Q) (Homo sapiens, UniProt P30613, R510Q). The test is described as follows: Luminescence Assay Protocol (Kinase Glo Plus), PKR(R510Q/without FBP). The following applies: PKRR510Q, without FBP; for activation at 1.54 µM / F - AC50 LUM KGP woFBP % Fold @ 1.54 μM mean: compound 1.54 μM; for activation at 1.54 µM: read-out: F - AC50 LUM KGP woFBP % Fold @ 1.54 μM mean; for Emax / E - AC50 LUM KGP woFBP MAX % FOLD mean: highest % fold increase at any concentration; for Emax: read-out: E - AC50 LUM KGP woFBP MAX % FOLD mean; for AC50: gmean, read-out: D - AC50 LUM KGP woFBP AC50 μM gmean. Here is the method:
as §1, §2, §3, §4

A value given as a limit tells only on which side of the number the result lay.

Chain of PKR(G332S) (P30613 whole entry G332S): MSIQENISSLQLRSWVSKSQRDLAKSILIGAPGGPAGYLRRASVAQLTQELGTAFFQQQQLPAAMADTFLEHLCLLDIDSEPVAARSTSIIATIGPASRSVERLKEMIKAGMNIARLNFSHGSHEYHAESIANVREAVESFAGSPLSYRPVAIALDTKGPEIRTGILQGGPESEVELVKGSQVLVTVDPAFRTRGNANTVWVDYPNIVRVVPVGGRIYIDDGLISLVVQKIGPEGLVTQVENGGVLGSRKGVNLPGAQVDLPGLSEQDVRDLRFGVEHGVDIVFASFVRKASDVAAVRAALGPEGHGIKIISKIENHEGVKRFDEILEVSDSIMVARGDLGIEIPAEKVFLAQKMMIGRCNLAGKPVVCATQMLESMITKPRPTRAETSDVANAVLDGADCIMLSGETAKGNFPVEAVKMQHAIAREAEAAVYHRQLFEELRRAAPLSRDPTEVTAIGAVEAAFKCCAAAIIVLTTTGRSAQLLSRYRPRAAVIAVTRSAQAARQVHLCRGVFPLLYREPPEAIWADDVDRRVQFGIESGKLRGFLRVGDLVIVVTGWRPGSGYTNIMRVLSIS
Chain of PKR(R510Q) (P30613 whole entry R510Q): as the sequence (P30613 whole entry G332S) above, with S332G, R510Q counted along it
Chain of PKR(wt) (P30613 whole entry): as the sequence (P30613 whole entry G332S) above, with S332G counted along it

`O=C([C@@H](CO)c1ccccc1)N1CC2=C(C1)CN(S(=O)(=O)c1cnc3c(c1)OCCO3)C2` (single isomer, unassigned) [Example 2]: the activation at 1.54 µM in test [1], in test [2] and in test [3] was 75 to 250% each time. Besides, the Emax in test [1] was in the range of 75 to 250%; in test [2], 75 to 250%; in test [3], 250 to 500%.

By AC50 is commonly meant the midpoint of the concentration-response curve, whichever way the signal moves. `O=C(C(CO)c1ccccn1)N1CC2=C(C1)CN(S(=O)(=O)c1cnc3c(c1)OCCO3)C2` (single isomer, unassigned) [Example 3, (R or S)-1-(5-((2,3-dihydro-[1,4]dioxino[2,3-b]pyridin-7-yl)sulfonyl)-3,4,5,6-tetrahydropyrrolo[3,4-c]pyrrol-2(1H)-yl)-3-hydroxy-2-(pyridin-2-yl)propan-1-one]: in test [1], the “I - AC50 LUM KGP woFBP % Fold @ 1.54 μM mean” value is “++ (>75% and ≤250% (++))”; the AC50 was no more than 0.1 µM; the “H - AC50 LUM KGP woFBP MAX % FOLD mean” value was “++ (>75% and ≤250% (++))”. In addition, in test [2], the activation at 1.54 µM is 75 to 250%, the AC50 is 1 to 40 µM and the Emax lay in the range of 75 to 250%. In addition, in test [3], the “F - AC50 LUM KGP woFBP % Fold @ 1.54 μM mean” value was “++ (>75% and ≤250% (++))”; the AC50 was 0.1 to 1 µM; the “E - AC50 LUM KGP woFBP MAX % FOLD mean” value was “+++ (>250% and ≤500% (+++))”.

Regarding `O=C(C1CCCOC1)N1CC2=C(C1)CN(S(=O)(=O)c1cnc3c(c1)OCCO3)C2` (single isomer, unassigned) [Example 5, (R or S)-(5-((2,3-dihydro-[1,4]dioxino[2,3-b]pyridin-7-yl)sulfonyl)-3,4,5,6-tetrahydropyrrolo[3,4-c]pyrrol-2(1H)-yl)(tetrahydro-2H-pyran-3-yl)methanone], in test [1], the activation at 1.54 µM lay in the range of 75 to 250%, the AC50 was in the range of 0.1 to 1 µM and the Emax fell in the range of 75 to 250%. In addition, in test [2], the activation at 1.54 µM lay within 75 to 250%, the AC50 lay within 1 to 40 µM and the Emax was 75 to 250%. In test [3], the activation at 1.54 µM is 75 to 250%, the AC50 fell in the range of 1 to 40 µM and the Emax was in the range of 250 to 500%.

In the case of `O=C(C1CCCOC1)N1CC2=C(C1)CN(S(=O)(=O)c1cnc3c(c1)OCCO3)C2` (single isomer, unassigned) [Example 6, (S or R)-(5-((2,3-dihydro-[1,4]dioxino[2,3-b]pyridin-7-yl)sulfonyl)-3,4,5,6-tetrahydropyrrolo[3,4-c]pyrrol-2(1H)-yl)(tetrahydro-2H-pyran-3-yl)methanone], the “I - AC50 LUM KGP woFBP % Fold @ 1.54 μM mean” value in test [1] is “++ (>75% and ≤250% (++))”. Besides, the values for the AC50 in test [1], in test [2] and in test [3] were 1 to 40 µM, greater than 40 µM and greater than 40 µM, respectively. The “H - AC50 LUM KGP woFBP MAX % FOLD mean” value in test [1] is “++ (>75% and ≤250% (++))”.

In the case of `O=C(C1CCCOC1)N1CC2=C(C1)CN(S(=O)(=O)c1ccc3c(c1)NCCO3)C2` (single isomer, unassigned) [Example 33, (S or R)-(5-((3,4-dihydro-2H-benzo[b][1,4]oxazin-6-yl)sulfonyl)-3,4,5,6-tetrahydropyrrolo[3,4-c]pyrrol-2(1H)-yl)(tetrahydro-2H-pyran-3-yl)methanone], in test [1], the activation at 1.54 µM fell in the range of 75 to 250%, the AC50 fell in the range of 1 to 40 µM and the Emax was in the range of 75 to 250%. Moreover, in test [2], the activation at 1.54 µM lay in the range of 75 to 250%, the AC50 was greater than 40 µM and the Emax fell in the range of 75 to 250%. Further, in test [3], the “F - AC50 LUM KGP woFBP % Fold @ 1.54 μM mean” value is “++ (>75% and ≤250% (++))”; the half-maximal activity concentration (AC50) is 1 to 40 µM; the Emax lay within 250 to 500%.

Regarding `O=C(C1CCCOC1)N1CC2=C(C1)CN(S(=O)(=O)c1ccc3c(c1)NCCO3)C2` (single isomer, unassigned) [Example 34, (R or S)-(5-((3,4-dihydro-2H-benzo[b][1,4]oxazin-6-yl)sulfonyl)-3,4,5,6-tetrahydropyrrolo[3,4-c]pyrrol-2(1H)-yl)(tetrahydro-2H-pyran-3-yl)methanone], in test [1], the “I - AC50 LUM KGP woFBP % Fold @ 1.54 μM mean” value is “++ (>75% and ≤250% (++))”; the AC50 is no more than 0.1 µM; the “H - AC50 LUM KGP woFBP MAX % FOLD mean” value is “++ (>75% and ≤250% (++))”. For the same compound, in test [2], the “C - AC50 LUM KGP FBP % Fold @ 1.54 μM mean” value is “++ (>75% and ≤250% (++))”; the AC50 is 0.1 to 1 µM; the “B - AC50 LUM KGP FBP MAX % FOLD mean” value is “++ (>75% and ≤250% (++))”. Further, in test [3], the “F - AC50 LUM KGP woFBP % Fold @ 1.54 μM mean” value is “+++ (>250% and ≤500% (+++))”; the AC50 was no more than 0.1 µM; the “E - AC50 LUM KGP woFBP MAX % FOLD mean” value was “+++ (>250% and ≤500% (+++))”.

Turning to `O=C(C(CO)c1ccccn1)N1CC2=C(C1)CN(S(=O)(=O)c1ccc(OC(F)F)cc1)C2` (single isomer, unassigned) [Example 41, (S or R)-1-(5-((4-(difluoromethoxy)phenyl)sulfonyl)-3,4,5,6-tetrahydropyrrolo[3,4-c]pyrrol-2(1H)-yl)-3-hydroxy-2-(pyridin-2-yl)propan-1-one], the activation at 1.54 µM was in the range of 250 to 500% in test [1], 75 to 250% in test [2] and 250 to 500% in test [3]. For the same compound, the AC50 in test [1], in test [2] and in test [3] was no more than 0.1 µM throughout. Moreover, the figures for the Emax in test [1], in test [2] and in test [3] were 250 to 500%, 75 to 250% and 250 to 500%, respectively.

As to `O=C(C1CCCOC1)N1CC2=C(C1)CN(S(=O)(=O)c1ccccn1)C2` (single isomer, unassigned) [Example 44, (R or S)-(5-(pyridin-2-ylsulfonyl)-3,4,5,6-tetrahydropyrrolo[3,4-c]pyrrol-2(1H)-yl)(tetrahydro-2H-pyran-3-yl)methanone], in test [1], the activation at 1.54 µM lay in the range of 75 to 250%; the AC50 lay in the range of 1 to 40 µM; the “H - AC50 LUM KGP woFBP MAX % FOLD mean” value was “++ (>75% and ≤250% (++))”. For the same compound, in test [2], the activation at 1.54 µM fell in the range of 75 to 250%, the AC50 lay in the range of 1 to 40 µM and the Emax was 75 to 250%. Moreover, in test [3], the activation at 1.54 µM is 75 to 250%; the AC50 was greater than 40 µM; the “E - AC50 LUM KGP woFBP MAX % FOLD mean” value was “++ (>75% and ≤250% (++))”.

For `O=C(C1CCCOC1)N1CC2=C(C1)CN(S(=O)(=O)c1ccccn1)C2` (single isomer, unassigned) [Example 45, (S or R)-(5-(pyridin-2-ylsulfonyl)-3,4,5,6-tetrahydropyrrolo[3,4-c]pyrrol-2(1H)-yl)(tetrahydro-2H-pyran-3-yl)methanone], in test [1], the “I - AC50 LUM KGP woFBP % Fold @ 1.54 μM mean” value is “++ (>75% and ≤250% (++))”; the AC50 was in the range of 0.1 to 1 µM; the “H - AC50 LUM KGP woFBP MAX % FOLD mean” value was “+++ (>250% and ≤500% (+++))”. In addition, in test [2], the “C - AC50 LUM KGP FBP % Fold @ 1.54 μM mean” value was “++ (>75% and ≤250% (++))”; the AC50 is 0.1 to 1 µM; the “B - AC50 LUM KGP FBP MAX % FOLD mean” value is “++ (>75% and ≤250% (++))”. In test [3], the “F - AC50 LUM KGP woFBP % Fold @ 1.54 μM mean” value is “++ (>75% and ≤250% (++))”; the AC50 lay within 1 to 40 µM; the “E - AC50 LUM KGP woFBP MAX % FOLD mean” value is “+++ (>250% and ≤500% (+++))”.
